Experimental data published in the supplement of paper PMC10307832.

Experiments:
Test in all cases: relative viability (nuclei count vs DMSO), 5 days (fraction); higher = more cells survive
201T = test system: 201T
Outline: (§1)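 A single step with final 0.05% Triton X-100, 1% formaldehyde and 1 ug/ml Hoechst fixed the cells and stained nuclei 5 days after treatment. Lung cancer cell lines in 1536-well plates had been treated by pin tool the day after seeding with one drug alone or a fixed anchor-drug dose plus five library-drug doses (not always all listed) in √10 steps, and nuclei were counted on 4× images. Relative viability is the ratio of nuclei in treated wells to nuclei in vehicle wells, taken as the median of duplicate plates.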

ABC-1 = test system: ABC-1
Outline: as §1

CAL-12T = test system: CAL-12T
Outline: as §1

COR-L23 = test system: COR-L23
Outline: as §1

ChaGo-K-1 = test system: ChaGo-K-1
Outline: as §1

HCC-44 = test system: HCC-44
Outline: as §1

HOP-62 = test system: HOP-62
Outline: as §1

LC-2-ad = test system: LC-2-ad
Outline: as §1

LCLC-103H = test system: LCLC-103H
Outline: as §1

NCI-H1355 = test system: NCI-H1355
Outline: as §1

NCI-H1395 = test system: NCI-H1395
Outline: as §1

NCI-H1651 = test system: NCI-H1651
Outline: as §1

NCI-H1666 = test system: NCI-H1666
Outline: as §1

CCCCCCCCCCCC1=C(O)C(=O)C=C(O)C1=O [Embelin] + Cc1cc(Nc2cc(N3CCN(C)CC3)nc(Sc3ccc(NC(=O)C4CC4)cc3)n2)n[nH]1 [Tozasertib] (partner 0.1 µM)
relative viability (201T; first compound 0.08 µM): 0.934 | relative viability (201T; first compound 0.8 µM): 0.963 | relative viability (201T; first compound 2.53 µM): 0.94 | relative viability (201T; first compound 8 µM): 1.06 | relative viability (ABC-1; first compound 0.08 µM): 0.189 | relative viability (ABC-1; first compound 0.8 µM): 0.166 | relative viability (ABC-1; first compound 2.53 µM): 0.181 | relative viability (ABC-1; first compound 8 µM): 0.148 | relative viability (CAL-12T; first compound 0.08 µM): 0.315 | relative viability (CAL-12T; first compound 0.8 µM): 0.406 | relative viability (CAL-12T; first compound 2.53 µM): 0.372 | relative viability (CAL-12T; first compound 8 µM): 0.358 | relative viability (COR-L23; first compound 0.08 µM): 0.191 | relative viability (COR-L23; first compound 0.8 µM): 0.253 | relative viability (COR-L23; first compound 2.53 µM): 0.233 | relative viability (COR-L23; first compound 8 µM): 0.19 | relative viability (ChaGo-K-1; first compound 0.08 µM): 0.243 | relative viability (ChaGo-K-1; first compound 0.8 µM): 0.239 | relative viability (ChaGo-K-1; first compound 2.53 µM): 0.212 | relative viability (ChaGo-K-1; first compound 8 µM): 0.243 | relative viability (HCC-44; first compound 0.08 µM): 1.03 | relative viability (HCC-44; first compound 0.8 µM): 1.12 | relative viability (HCC-44; first compound 2.53 µM): 0.814 | relative viability (HCC-44; first compound 8 µM): 0.836 | relative viability (HOP-62; first compound 0.08 µM): 0.313 | relative viability (HOP-62; first compound 0.8 µM): 0.456 | relative viability (HOP-62; first compound 2.53 µM): 0.377 | relative viability (HOP-62; first compound 8 µM): 0.387 | relative viability (LC-2-ad; first compound 0.08 µM): 0.469 | relative viability (LC-2-ad; first compound 0.8 µM): 0.421 | relative viability (LC-2-ad; first compound 2.53 µM): 0.52 | relative viability (LC-2-ad; first compound 8 µM): 0.441 | relative viability (LCLC-103H; first compound 0.08 µM): 0.549 | relative viability (LCLC-103H; first compound 0.8 µM): 0.557 | relative viability (LCLC-103H; first compound 2.53 µM): 0.508 | relative viability (LCLC-103H; first compound 8 µM): 0.501 | relative viability (NCI-H1355; first compound 0.08 µM): 0.608 | relative viability (NCI-H1355; first compound 0.8 µM): 0.704 | relative viability (NCI-H1355; first compound 2.53 µM): 0.546 | relative viability (NCI-H1355; first compound 8 µM): 0.499 | relative viability (NCI-H1395; first compound 0.08 µM): 0.766 | relative viability (NCI-H1395; first compound 0.8 µM): 0.725 | relative viability (NCI-H1395; first compound 2.53 µM): 0.832 | relative viability (NCI-H1395; first compound 8 µM): 0.722 | relative viability (NCI-H1651; first compound 0.08 µM): 0.677 | relative viability (NCI-H1651; first compound 0.8 µM): 0.657 | relative viability (NCI-H1651; first compound 2.53 µM): 0.723 | relative viability (NCI-H1651; first compound 8 µM): 0.807 | relative viability (NCI-H1666; first compound 0.08 µM): 0.615 | relative viability (NCI-H1666; first compound 0.8 µM): 0.68
